Assay [1] deals with miR-124. Briefly: Modulation of miR-124 expression in PBMCs (qPCR, relative quantification). Format: cell-based, human. The settings on record: for effect on the overexpression of miR-124 in PBMCs: known antiretrovirals, PBMCs from four donors; for Fold-change compared to DMSO treated cells (Relative quantification) Mean / fold induction at 5 µM / fold induction at 10 µM: miR-124 expression, PBMCs of healthy donors; for Fold-change compared to DMSO treated cells (Relative quantification) Mean / fold induction at 10 µM: antiretroviral drugs 10 μM, extraction day 6, 4 donors; for fold induction at 5 µM / fold induction at 10 µM: Homo sapiens, PBMC, 144 h, read-out: Fold-change compared to DMSO treated cells (Relative quantification) Mean; for fold induction at 5 µM: quinoline derivatives 5 μM, extraction day 6, mean over 1 to 7 donors. As to the method: Briefly, 60-70 mL of buffy-coat are poured in a flask of 175 cm^2, and the volume is adjusted to 300 mL using PBS in order to obtain a dilution of about 5-fold of the buffy coat. […] The lymphocyte ring is recovered from the Falcon™ tube with a transfer pipette (Pastette®) and then washed with PBS using centrifugation for 10 minutes at 290 rcf and at ambient temperature until the supernatant becomes clear.
Cells are incubated for 48 hours at 37° C. under 5% CO2.
Six-well plates are used for the screening. Within each well comprising 3.10^6 cell/4 ml RPMI supplemented with 10% fetal calf serum and 40 U/mL IL-2 (Peprotech Ref 200-02) are added screened molecules. 100% DMSO (4 μL) is added to the well and tested as a negative control.
Each tested condition is set up as described here below and the final corresponding volume is adjusted accordingly in the well: • 1) Quinoline derivatives in 100% DMSO—(5 μM and final volume 4 μL) • 2) Antiretroviral drugs: Maraviroc, Efavirenz, Darunavir, AZT (10 μM for all—final volume 4 μL).
The wells are incubated for three days at 37° C. under 5% CO2 Medium is changed (Day 3) according to standard protocols. Briefly, plates are centrifugated at 290 rcf for 5 minutes and 3 mL of supernatant is removed. 3 mL of RPMI supplemented with 10% fetal calf serum and 40 U/mL IL-2 is then added with 3 μL of a stock solution of screened molecule at 5 mM in 100% DMSO or 3 μL of 100% DMSO as a negative control.
Cells are recovered within Falcon™ tubes of 15 mL, centrifugated at 290 rcf for 5 minutes, and then washed in 10 mL PBS and further centrifugated at 290 rcf for 5 minutes. Cells are then resuspended in 1 mL PBS and counted.
6×10^6 cells are recovered and centrifugated at 290 rcf for 5 minutes.
The miRNA extraction is achieved using the protocol from Macherey Nagel Nucleospin® miRNA extraction kit using an elution volume for RNAs of 50 μL and miRNAs of 30 μL, and further stored at −20° C.
The reverse transcription step is followed for 12 μL of miRNA using the miScript RT II reverse transcription (RT) kit from QIAGEN© using the miScript HiSpec buffer, and further stored at −20° C.
The quantitative PCR step is achieved using the QIAGEN© miScript SYBR® Green PCR kit and miScript Primer Assays according to the manufacturer's protocol.
The reaction is repeated in triplicates in a 384-well plate according to the manufacturer's protocol on a LightCycler® […] Roche Real-Time PCR system. Cycling conditions are also set up according to the manufacturer's protocol: […]
(Real-time PCR tracks product formation cycle by cycle.)

Assay [2] concerns Collagen induced arthritis model. Briefly: Collagen induced arthritis mouse model. It counts as in vivo, DBA/1 mice. On the procedure:
Groups of 9 to -10-week-old DBA/1 mice were immunized intradermally with bovine collagen type II emulsified in a 1:1 proportion with complete Freund's adjuvant. Mice were challenged 21 days after the first immunization and the phenotypic appearance of arthritis was evaluated by monitoring every second day the thickness of each hind paw ankle joint thickness was measured using a dial caliper (0- to 10-mm) test gauge using a thickness gage. Mice were treated daily for two weeks with quinoline derivatives candidates suspended in methylcellulose or methylcellulose (MC) only and the development of the disease was then monitored. Statistical analysis was performed using Mann-Whitney test, asterisk indicates a significant difference ([…]).

The subject of assay [3] is (DSS-) induced colitis model. The assay can be described thus: Dextran Sulphate Sodium (DSS-) induced colitis mouse model. Format: in vivo, C57BL/6 mice. On the procedure:
A commonly used mouse model of inflammatory bowel disease is the Dextran Sulphate Sodium (DSS-) induced colitis model. Typical histological changes of acute DSS-colitis are mucin depletion, epithelial degeneration and the eventual destruction of the mucosal barrier which leads to inflammation and colitis.
Three groups of 6-week-old C57BL/6 mice (8 mice each) received DSS administration in the drinking water (2.5%) for 9 days (FIGS. 1-2). Weight loss and water consumption was measured every day. The latter was determined by measuring the volume loss of the drinking water in the respective devices. The mice were treated by gavage with 200 ul of 0.5 MC alone (DSS+MC group) or together with 40 mg/kg of compound 24 (DSS+MC+24 group). At the point when control mice have loosed up to 20% of their weight (DSS), the treatment with DSS is stopped and replaced with drinking water. The other treatments were continued for 21 days.
Three groups of 16-week-old C57BL/6 mice (7 mice each) received 2.5% DSS in drinking water (FIG. 3). The mice were treated by gavage with 200 ul of 0.5 MC alone (DSS+MC group) or together with 40 mg/kg of compound 24 (DSS+MC+24 group). The mice were treated with DSS for 6 days and at the point when control mice have loosed up to 15% of their weight (DSS), all the mice were euthanized and colon were taken for further analyses.
Colons were measured using a ruler and for histological analysis the entire colon was prepared according to the Swiss roll procedure (Whittem el al.; “Murine Colitis Modeling using Dextran Sulfate Sodium (DSS)”, J Vis Exp 2010 (35) 1652) fixed with formaldehyde and embedded in paraffin. 4 μm sections were de-paraffinized and stained with hematoxylin and eosin and analyzed for lesion size and other alterations (FIGS. 4-6). We compared untreated and treated mice during the DSS-cycle with quinoline derivatives suspended in methylcellulose or methylcellulose (MC) only. Statistical analysis was performed using Mann-Whitney test, asterisk indicates a significant difference ([…]), two asterisks indicate a very significant difference ([…])

Some results are limits rather than exact numbers.

For `Cc1cn([C@H]2C[C@H](N=[N+]=[N-])[C@@H](CO)O2)c(=O)[nH]c1=O` [AZT, reference compound], in assay [1], the “effect on the overexpression of miR-124 in PBMCs” value (“effect on the overexpression” below) was “none of the known antiretroviral (Maraviroc, Effavirenz, Darunavir or AZT) has any significant effect” and the “Fold-change compared to DMSO treated cells (Relative quantification) Mean” value came out at 0.90.

Take `Cc1ccnc(Nc2ccc3cccc(Cl)c3n2)c1` [Compound 1]: in assay [1], the fold induction at 5 µM was determined as 32.

On to `FC(F)(F)c1ccc(Nc2ccc3cccc(Cl)c3n2)nc1` [Compound 2], for which the fold induction at 5 µM in assay [1] amounted to 66.7.

For the molecule `Fc1ccc(Nc2ccc3cccc(Cl)c3n2)nc1` [Compound 3], in assay [1], the fold induction at 5 µM was found to be 48.5.

Take `Cc1ccnc(Nc2ccc3cccc(Cl)c3n2)c1N` [Compound 4]: the fold induction at 5 µM in assay [1] came to 24.4.

Regarding `FC(F)(F)c1ccnc(Nc2ccc3c(OCCN4CCOCC4)ccc(Cl)c3n2)c1` [Compound 5], in assay [1], the fold induction at 5 µM stood at 26.8.

Regarding `FC(F)(F)c1ccnc(Nc2ccc3c(OCCN4CCCCC4)ccc(Cl)c3n2)c1` [Compound 6], the fold induction at 5 µM in assay [1] turned out to be 30.9.

On to `Nc1ccc(Cl)c2nc(Nc3cc(C(F)(F)F)ccn3)ccc12` [Compound 7], for which the fold induction at 5 µM in assay [1] was 7.54.

With `FC(F)(F)c1ccnc(Nc2ccc3c(OCCCN4CCCCC4)ccc(Cl)c3n2)c1` [Compound 8, 8-chloro-5-(3-(piperidin-1-yl)propoxy)-N-(4-(trifluoromethyl)pyridin-2-yl)quinolin-2-amine], the fold induction at 5 µM in assay [1] stood at 7.97.

With `FC(F)(F)c1ccnc(Nc2cc(NCCCN3CCCCC3)c3cccc(Cl)c3n2)c1` [Compound 9, 8-chloro-N^4-(3-(piperidin-1-yl)propyl)-N^2-(4-(trifluoromethyl)pyridin-2-yl)quinoline-2,4-diamine], in assay [1], the fold induction at 5 µM is 112.

For the molecule `CN(c1cc(C(F)(F)F)ccn1)c1ccc2cccc(Cl)c2n1` [Compound 10, 8-chloro-N-methyl-N-(4-(trifluoromethyl)pyridin-2-yl)quinolin-2-amine], the fold induction at 5 µM in assay [1] came to 21.1.

`FC(F)(F)c1ccnc(Nc2cc(NCCN3CCOCC3)c3cccc(Cl)c3n2)c1` [Compound 11, 8-chloro-N^4-(2-morpholinoethyl)-N^2-(4-(trifluoromethyl)pyridin-2-yl)quinoline-2,4-diamine]: the fold induction at 5 µM in assay [1] is 17.4.

As for `FC(F)(F)c1ccnc(Nc2ccc3cccc(Cl)c3n2)c1` [Compound 12], the fold induction at 5 µM in assay [1] turned out to be 16.3.

On to `COc1ccc(Nc2ccc3cccc(Cl)c3n2)cc1` [Compound 23], for which the fold induction at 5 µM in assay [1] turned out to be 45.1.

Regarding `FC(F)(F)Oc1ccc(Nc2ccc3cccc(Cl)c3n2)cc1` [Compound 24, 8-chloro-N-[4-(trifluoromethoxy)phenyl]quinolin-2-amine], the fold induction at 5 µM in assay [1] amounted to 32.5. The molecule further returned a swelling of joints in assay [2] (hind paw ankle joint thickness, MC only treated about 2.2 mm (FIG. 6)) of 1.9 mm. The “mice that displayed signs of inflammation” value in assay [2] (treated daily for two weeks, 8 out of 10 MC treated mice developed disease) was “one out of ten”. In addition, the “weight loss in average” value in assay [3] (after 5 days of DSS-administration, 40 mg/kg by gavage in MC, MC or untreated mice 10% to 20%) is reported as less than 1%. For the same molecule, the “alterations in lymphoid organs such as Peyer's Patches” value in assay [3] (after two DSS-cycles) was “decrease of alterations in lymphoid organs such as Peyer's Patches”. The “average size of the lesion area” value was 2.1 mm^2 in assay [3] (colon histology (FIG. 5), versus 8.4 in MC only treated mice) and 3.8 mm^2 in assay [3] (mice exposed to two DSS-cycles, vs 12.2 in MC only treated mice). The number of lesions entry in assay [3] (colon histology, compared between cohorts (FIG. 4)) is on record as “comparable number of lesions”. The water consumption entry in assay [3] (drug treated mice, DSS model, 40 mg/kg by gavage) was “higher water consumption”. The “weight loss during the second administration of DSS” value in assay [3] (second cycle of DSS, 40 mg/kg by gavage) is “significantly control weight loss”.

As for `Nc1cc(OC(F)(F)F)ccc1Nc1ccc2cccc(Cl)c2n1` [Compound 25], the fold induction at 5 µM in assay [1] turned out to be 14.3.

As for `Nc1ccc(Cl)c2nc(Nc3ccc(OC(F)(F)F)c(Cl)c3)ccc12` [Compound 26], the fold induction at 5 µM in assay [1] turned out to be 6.13.

For `Cc1cc2c(N)ccc(Cl)c2nc1Nc1ccc(OC(F)(F)F)c(Cl)c1` [Compound 27], in assay [1], the fold induction at 5 µM stood at 1.42.

On to `CN(c1ccc(OC(F)(F)F)cc1)c1ccc2cccc(Cl)c2n1` [Compound 28, 8-chloro-N-methyl-N-(4-(trifluoromethoxy)phenyl)quinolin-2-amine], for which, in assay [1], the fold induction at 5 µM amounted to 22.2.

With `FC(F)(F)Oc1ccc(N(CCCN2CCCCC2)c2ccc3cccc(Cl)c3n2)cc1` [Compound 30, 8-chloro-N-(3-(piperidin-1-yl)propyl)-N-(4-(trifluoromethoxy)phenyl)quinolin-2-amine], the fold induction at 5 µM in assay [1] amounted to 9.88.

For the molecule `Clc1cccc2ccc(Nc3cnccn3)nc12` [Compound 45], the fold induction at 5 µM in assay [1] stood at 34.2.

`FC(F)(F)c1ccnc(Oc2ccc3cccc(Cl)c3n2)c1` [Compound 46, 8-chloro-2-((4-(trifluoromethyl)pyridin-2-yl)oxy)quinoline]: the fold induction at 5 µM in assay [1] was 6.23.

On to `FC(F)(F)Oc1ccc(Oc2ccc3cccc(Cl)c3n2)cc1` [Compound 48, 8-chloro-2-(4-(trifluoromethoxy)phenoxy)quinoline], for which the fold induction at 5 µM in assay [1] was 24.

`CC(C)CN(C[C@@H](O)[C@H](Cc1ccccc1)NC(=O)O[C@H]1CO[C@H]2OCC[C@H]21)S(=O)(=O)c1ccc(N)cc1` [Darunavir, reference compound]: in assay [1], the fold induction at 10 µM is 1.08 and the “effect on the overexpression” value was “none of the known antiretroviral (Maraviroc, Effavirenz, Darunavir or AZT) has any significant effect”.

For the molecule `O=C1Nc2ccc(Cl)cc2[C@@](C#CC2CC2)(C(F)(F)F)O1` [Effavirenz, Efavirenz, reference compound], in assay [1], the fold induction at 10 µM came to 0.46 and the “effect on the overexpression” value is listed as “none of the known antiretroviral (Maraviroc, Effavirenz, Darunavir or AZT) has any significant effect”.

Take Maraviroc [reference compound]: in assay [1], the “effect on the overexpression” value is recorded as “none of the known antiretroviral (Maraviroc, Effavirenz, Darunavir or AZT) has any significant effect” and the “Fold-change compared to DMSO treated cells (Relative quantification) Mean” value is 0.73.
